# Source: publication PMC6934184, “Selective DNA-PKcs inhibition extends the therapeutic index of localized radiotherapy and chemotherapy” (The Journal of Clinical Investigation, 2019)
# Target: T1, MERTK (cMER) (Homo sapiens, UniProt Q12866)
# T1 construct: purchased Thermo Fisher Scientific (Life Technologies) SelectScreen
# Test: SelectScreen Z'LYTE
# Type: biochemical
# How it was run: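 Percent values come from Thermo SelectScreen profiling of NU5455, combining activity and binding assays. CSF1R was run in Z'LYTE format at Km app ATP, and CAMK1 in Adapta format with ATP listed at 10.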
# T1 sequence (Q12866 21-999): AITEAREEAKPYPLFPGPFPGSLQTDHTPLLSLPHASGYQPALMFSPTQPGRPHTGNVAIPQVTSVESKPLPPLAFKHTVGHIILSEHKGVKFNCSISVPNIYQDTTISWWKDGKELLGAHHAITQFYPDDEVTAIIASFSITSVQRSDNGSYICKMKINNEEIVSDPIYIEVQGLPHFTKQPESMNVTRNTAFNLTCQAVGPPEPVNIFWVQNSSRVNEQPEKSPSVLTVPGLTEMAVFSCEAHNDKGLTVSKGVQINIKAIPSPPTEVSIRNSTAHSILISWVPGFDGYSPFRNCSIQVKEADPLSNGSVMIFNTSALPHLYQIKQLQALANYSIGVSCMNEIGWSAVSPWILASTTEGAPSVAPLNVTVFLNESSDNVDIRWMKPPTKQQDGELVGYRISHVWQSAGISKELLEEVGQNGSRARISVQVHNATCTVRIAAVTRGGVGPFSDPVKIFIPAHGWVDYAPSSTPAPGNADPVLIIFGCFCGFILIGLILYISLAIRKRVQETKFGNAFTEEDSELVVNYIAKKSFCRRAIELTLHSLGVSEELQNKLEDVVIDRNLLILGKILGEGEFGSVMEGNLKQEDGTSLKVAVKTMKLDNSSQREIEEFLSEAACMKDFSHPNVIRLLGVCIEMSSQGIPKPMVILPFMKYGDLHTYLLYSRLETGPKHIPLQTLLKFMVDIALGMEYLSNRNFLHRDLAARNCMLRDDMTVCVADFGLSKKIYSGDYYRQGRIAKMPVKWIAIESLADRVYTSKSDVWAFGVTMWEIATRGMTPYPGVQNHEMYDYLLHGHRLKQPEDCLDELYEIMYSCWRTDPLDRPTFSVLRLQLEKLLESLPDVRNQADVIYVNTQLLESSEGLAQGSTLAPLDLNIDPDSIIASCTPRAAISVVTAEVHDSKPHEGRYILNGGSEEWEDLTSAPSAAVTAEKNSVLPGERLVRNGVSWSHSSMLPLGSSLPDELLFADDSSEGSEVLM
compound,measurement,value
CN(C(=O)CN1CCOCC1)c1ccc2sc3c(-c4cccc5c(=O)cc(N6CC7CCC(C6)O7)oc45)cccc3c2c1 [NU5455],inhibition at 1 µM,8.3%
